Test results from patent US20210221848A1, “POLYMYXIN DERIVATIVES AND THEIR USE IN COMBINATION THERAPY TOGETHER WITH DIFFERENT ANTIBIOTICS” (priority 2014, published 2021).
Like-named read-outs stand apart in the source and are kept apart here.

Key:
[1] = tested on: K. pneumoniae; assay: MIC in the presence of a fixed concentration (2 μg/mL) of Rifampicin; type: cell-based, Klebsiella pneumoniae; details: Rifampicin 2 μg/mL, Table 5D
Protocol: (§1) The inoculum was prepared by making a direct suspension of isolated colonies (selected from an 18-24 hour Mueller-Hinton agar plate) adjusted to the 0.5 McFarland standard. […] The assays were performed in duplicate. […] In cases where the duplicate values varied by less than 2-fold, the lower of the two values is reported. If a variation of greater than 2-fold was observed, the assay was considered non-valid. Several of the compounds were subjected to multiple tests, and where this is the case, the MIC reflects the modal value obtained.

[2] = tested on: K. pneumoniae
[3] = tested on: P. aeruginosa
[4] = tested on: E. coli
[5] = tested on: A. baumannii
[6] = tested on: E. coli; assay: MIC in the presence of a fixed concentration (2 μg/mL) of Rifampicin; type: cell-based, Escherichia coli; details: Rifampicin 2 μg/mL, Table 5D
[7] = tested on: A. baumannii; assay: MIC in the presence of […] of rifampicin; type: cell-based, Acinetobacter baumannii; details: for MIC in combination with Rifampicin, A. baumannii ATCC BAA-747: A. baumannii ATCC BAA-747, Table 5D; for MIC in combination with Rifampicin, A. baumannii NCTC 13424: A. baumannii NCTC 13424, Table 5D
Protocol: as §1

[8] = tested on: E. coli strains with elevated MICs to Polymyxin B; assay: MIC against strains with elevated MICs to Polymyxin B; type: cell-based, Escherichia coli; details: Table 6D
Method in brief: (§2)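 Colonies picked from an 18-24 hour Mueller-Hinton agar plate are suspended directly and adjusted to 0.5 McFarland. Each MIC is run in duplicate. Values within 2-fold give the lower one; wider spread voids the assay; repeated testing yields the modal value.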

[9] = tested on: K. pneumoniae strains with elevated MICs to Polymyxin B; assay: as above; type: cell-based, Klebsiella pneumoniae; details: Table 6D
Method in brief: as §2

[10] = tested on: A. baumanii strains with elevated MICs to Polymyxin B; assay: as above; type: cell-based, Acinetobacter baumannii; details: Table 6D
Method in brief: as §2

[11] = tested on: P. aeruginosa strains with elevated MICs to Polymyxin B; assay: as above; type: cell-based, Pseudomonas aeruginosa; details: Table 6D
Method in brief: as §2

[12] = absence of a second agent, Table 6B

(trans-5-cyclohexyl- piperidine)-3-carbonyl polymyxin B nonapeptide [Example D12]
MIC in combination with Rifampicin, K. pneumoniae ATCC 4352 [1]: 0.125 micrograms/mL
MIC in combination with Rifampicin, K. pneumoniae ATCC BAA-2146 [1]: 0.25 micrograms/mL
MIC, K. pneumoniae ATCC 4352 [2, 12]: >8 micrograms/mL
MIC, K. pneumoniae ATCC BAA-2146 [2, 12]: >8 micrograms/mL
MIC, P. aeruginosa ATCC 27853 [3, 12]: 1 micrograms/mL
MIC, P. aeruginosa CCUG 59347 [3, 12]: 4 micrograms/mL
MIC, E. coli ATCC 25922 [4, 12]: >8 micrograms/mL
MIC, E. coli NCTC 13441 [4, 12]: >8 micrograms/mL
MIC, A. baumannii ATCC BAA-747 [5, 12]: >8 micrograms/mL
MIC, A. baumannii NCTC 13424 [5, 12]: >8 micrograms/mL
MIC in combination with Rifampicin, E. coli ATCC 25922 [6]: 0.06 micrograms/mL
MIC in combination with Rifampicin, E. coli NCTC 13441 [6]: 0.25 micrograms/mL
MIC in combination with Rifampicin, A. baumannii ATCC BAA-747 [7]: 0.5 micrograms/mL
MIC in combination with Rifampicin, A. baumannii NCTC 13424 [7]: 0.03 micrograms/mL

(cis-5-cyclohexyl- piperidine)-3-carbonyl polymyxin B nonapeptide [Example D10]
MIC in combination with Rifampicin, K. pneumoniae ATCC 4352 [1]: 0.125 micrograms/mL
MIC in combination with Rifampicin, K. pneumoniae ATCC BAA-2146 [1]: 0.25 micrograms/mL
MIC, K. pneumoniae ATCC 4352 [2, 12]: 8 micrograms/mL
MIC, K. pneumoniae ATCC BAA-2146 [2, 12]: >8 micrograms/mL
MIC, P. aeruginosa ATCC 27853 [3, 12]: 1 micrograms/mL
MIC, P. aeruginosa CCUG 59347 [3, 12]: 2 micrograms/mL
MIC, E. coli ATCC 25922 [4, 12]: 4 micrograms/mL
MIC, E. coli NCTC 13441 [4, 12]: 4 micrograms/mL
MIC, A. baumannii ATCC BAA-747 [5, 12]: >8 micrograms/mL
MIC, A. baumannii NCTC 13424 [5, 12]: 8 micrograms/mL
MIC in combination with Rifampicin, E. coli NCTC 13441 [6]: 0.5 micrograms/mL
MIC in combination with Rifampicin, A. baumannii ATCC BAA-747 [7]: 0.5 micrograms/mL
MIC in combination with Rifampicin, A. baumannii NCTC 13424 [7]: ≤0.015 micrograms/mL

cis-5- (benzylcarbamoyl) piperidine-3- carbonyl Polymyxin B nonapeptide [Example D66]
MIC E. coli 058 ([8]; strain 058, elevated MIC to Polymyxin B): 8 micrograms/mL
MIC E. coli 059 ([8]; strain 059, elevated MIC to Polymyxin B): 16 micrograms/mL
MIC E. coli 060 ([8]; strain 060, elevated MIC to Polymyxin B): 8 micrograms/mL
MIC E. coli 061 ([8]; strain 061, elevated MIC to Polymyxin B): 32 micrograms/mL
MIC K. pneumoniae 062 ([9]; strain 062, elevated MIC to Polymyxin B): 128 micrograms/mL
MIC K. pneumoniae 063 ([9]; strain 063, elevated MIC to Polymyxin B): 64 micrograms/mL
MIC K. pneumoniae 064 ([9]; strain 064, elevated MIC to Polymyxin B): 32 micrograms/mL
MIC, K. pneumoniae ATCC 4352 ([2]; sole activity, Table 6C): 0.125 micrograms/mL
MIC, K. pneumoniae ATCC BAA-2146 ([2]; sole activity, Table 6C): 0.06 micrograms/mL
MIC, P. aeruginosa ATCC 27853 ([3]; sole activity, Table 6C): 0.5 micrograms/mL
MIC, P. aeruginosa CCUG 59347 ([3]; sole activity, Table 6C): 0.5 micrograms/mL
MIC A. baumannii 053 ([10]; strain 053, elevated MIC to Polymyxin B): >256 micrograms/mL
MIC A. baumannii 056 ([10]; strain 056, elevated MIC to Polymyxin B): 128 micrograms/mL
MIC A. baumannii 068 ([10]; strain 068, elevated MIC to Polymyxin B): 32 micrograms/mL
MIC P. aeruginosa 065 ([11]; strain 065, elevated MIC to Polymyxin B): 16 micrograms/mL
MIC P. aeruginosa 066 ([11]; strain 066, elevated MIC to Polymyxin B): 32 micrograms/mL
MIC P. aeruginosa 067 ([11]; strain 067, elevated MIC to Polymyxin B): >256 micrograms/mL
MIC, E. coli ATCC 25922 ([4]; sole activity, Table 6C): 0.125 micrograms/mL
MIC, E. coli NCTC 13441 ([4]; sole activity, Table 6C): 0.125 micrograms/mL
MIC, A. baumannii ATCC BAA-747 ([5]; sole activity, Table 6C): 0.25 micrograms/mL
MIC, A. baumannii NCTC 13424 ([5]; sole activity, Table 6C): 0.25 micrograms/mL

(5-Phenyl-piperidine)- 3-carbonyl polymyxin B nonapeptide [Example D8]
MIC in combination with Rifampicin, K. pneumoniae ATCC 4352 [1]: 0.03 micrograms/mL
MIC in combination with Rifampicin, K. pneumoniae ATCC BAA-2146 [1]: 0.06 micrograms/mL
MIC, K. pneumoniae ATCC 4352 [2, 12]: 0.125 micrograms/mL
MIC, K. pneumoniae ATCC BAA-2146 [2, 12]: 0.5 micrograms/mL
MIC, P. aeruginosa ATCC 27853 [3, 12]: 0.5 micrograms/mL
MIC, P. aeruginosa CCUG 59347 [3, 12]: 1 micrograms/mL
MIC, E. coli ATCC 25922 [4, 12]: 0.125 micrograms/mL
MIC, E. coli NCTC 13441 [4, 12]: 0.25 micrograms/mL
MIC, A. baumannii ATCC BAA-747 [5, 12]: 0.25 micrograms/mL
MIC, A. baumannii NCTC 13424 [5, 12]: 0.5 micrograms/mL
MIC in combination with Rifampicin, E. coli ATCC 25922 [6]: ≤0.015 micrograms/mL
MIC in combination with Rifampicin, A. baumannii ATCC BAA-747 [7]: 0.03 micrograms/mL
MIC in combination with Rifampicin, A. baumannii NCTC 13424 [7]: ≤0.015 micrograms/mL
